Columns and labels:
HCT116 tumors = assay: Immunofluorescence of cleaved caspase-3 in HCT116 tumor slides (NOD/SCID); format: in vivo, human; settings: NOD/SCID model
Method: FIG. 7C: Immunofluorescence assay of Cleaved caspase-3 (C3C) in HCT116 from NOD mice tumors treated with VEH (column on the left) or with compound 33 (column on the right). […] (Ordinate: Caspase-3 cleaved relative fluorescence in percentage). Statistical analysis has been performed by ANOVA (***=p=0.0003). Scale bar=50 μm.
Two different colorectal mouse models were used: a syngeneic model for which mouse colon cancer CT-26 cells were injected into Balb/c mice and a NOD/SCID model in which mice were implanted with human colorectal cancer HCT116 cells (FIG. 4 A-B). When the tumor reached a size of −2 mm, mice were treated intraperitoneally with the compound 33 at 5 mg/Kg (BALB/c n=11, NOD SCID n=6) or corn oil 5% DMSO (BALB/c n=10, NOD SCID n=6), every three days until the end of the experiment. The compound 33 was dissolved in DMSO, then diluted 20 times in corn oil (Sigma Aldrich-C8267) and sterilized by filtration with PTFE membrane Millex 0.2 μm (Millipore-SLFG025LS). Tumors were analyzed before reaching 2000 mm3. Treatment by compound 33 induces a decrease in tumor growth of 40% and 60% in the Balb/c and NOD mice, respectively (FIGS. 6A and 6B).

[1] = tested on: tumor-infiltrating macrophages; assay: Macrophage M1/M2-like markers in tumor slides, NOD/SCID HCT116 xenograft model; format: in vivo, mouse
Method: Statistical analysis has been performed by ANOVA (***=p=0.0019). FIG. 9B: M2-like markers pSTAT6 and ALOX15 were determined in tumor slides from NOD mice bearing HCT116 xenografts, treated or not with the compound 33 (related to formula (II)). Statistical analysis has been performed by ANOVA (***: p=0.0481). […] Anti-p-STAT1 (1/200; polyclonal, Cell Signaling), anti-SOCS1 (Suppressor of Cytokine Signaling protein 1, 1/200; polyclonal, Santa Cruz), and anti-NOS2 (Nitric Oxide Synthase 2, 1/200; polyclonal Santa Cruz) antibodies were used for M1-like macrophage markers. Anti-pSTAT6 (1/200; polyclonal Santa Cruz), anti-arginase-1 (1/200; polyclonal Santa Cruz) and anti-ALOX15 (Arachidonate 15-LipOXygenase, 1/200; monoclonal Santa Cruz) antibodies were used for M2-like macrophage markers. Primary antibodies were detected using Alexa fluor 488 or Alexa fluor 568-coupled secondary antibodies (1/500, Invitrogen). Nuclei were stained with 10 μl of ProLong Gold Antifade Mountant with DAPI (Molecular Probes). The same protocol was used for NOD/SCID mice except that mice were killed after 16 days after HCT116 cells injection. For the Balb/c model, mice were sacrificed at day 62 (day 1 being the first day of treatment). […] Especially the pSTAT1 relative expression measured is about 1.5 for compound 33 compared to 1.0 for the control, the NOS2 relative expression measured is about 1 for compound 33 compared to 2.5 for the control (FIG. 8A) in CT-26-Balb/c mice model. The pSTAT1 relative expression measured is about 1.5 for compound 33 compared to 0 for the control and the NOS2 relative expression measured is about 20 for compound 33 compared to 2 for the control (FIG. 8B) in NOD/SCID mice model.

[2] = tested on: tumor-infiltrating macrophages; assay: Macrophage M1/M2-like markers in tumor slides, CT-26-Balb/c model; format: in vivo, mouse
Method: FIG. 8A: Pro-inflammatory M1-like macrophage markers pSTAT1 and NOS2 determined in tumor slides from CT-26-Balb/c mice model. Animals were treated or not every 3 days with the compound 33 (5 mg/Kg) Statistical analysis has been performed by ANOVA (***=p=0.0051). […] FIG. 9A: Anti-inflammatory macrophage M2-like markers Arg1 and pSTAT6 determined in tumor slides from CT-26-Ballb/c mice model. Animals were treated or not every 3 days with the compound 33 (5 mg/Kg). Statistical analysis has been performed by ANOVA (***=p=0.0031). […] Anti-p-STAT1 (1/200; polyclonal, Cell Signaling), anti-SOCS1 (Suppressor of Cytokine Signaling protein 1, 1/200; polyclonal, Santa Cruz), and anti-NOS2 (Nitric Oxide Synthase 2, 1/200; polyclonal Santa Cruz) antibodies were used for M1-like macrophage markers. Anti-pSTAT6 (1/200; polyclonal Santa Cruz), anti-arginase-1 (1/200; polyclonal Santa Cruz) and anti-ALOX15 (Arachidonate 15-LipOXygenase, 1/200; monoclonal Santa Cruz) antibodies were used for M2-like macrophage markers. Primary antibodies were detected using Alexa fluor 488 or Alexa fluor 568-coupled secondary antibodies (1/500, Invitrogen). Nuclei were stained with 10 μl of ProLong Gold Antifade Mountant with DAPI (Molecular Probes). The same protocol was used for NOD/SCID mice except that mice were killed after 16 days after HCT116 cells injection. For the Balb/c model, mice were sacrificed at day […] (day 1 being the first day of treatment). […] Especially the pSTAT1 relative expression measured is about 1.5 for compound 33 compared to 1.0 for the control, the NOS2 relative expression measured is about 1 for compound 33 compared to 2.5 for the control (FIG. 8A) in CT-26-Balb/c mice model. The pSTAT1 relative expression measured is about 1.5 for compound 33 compared to 0 for the control and the NOS2 relative expression measured is about 20 for compound 33 compared to 2 for the control (FIG. 8B) in NOD/SCID mice model.

TMD8 human DLBCL cells = assay: TMD8 DLBCL xenograft in immunodeficient mice, tumor growth; format: in vivo; settings: 10 or 20 mg/kg intraperitoneally
Method: FIG. 11A: Tumor volume monitoring of TMD8 human DLBCL cells grown in Immunodeficient mice treated intraperitoneally with the compound 52 (=inhibitor 52) at 10 or 20 mg/kg or with vehicle at the same frequency. (Abscissa: Days from 0 to 25 in day; Ordinate: Tumor volume in mm^3 from 0 to 4000 (scale 1000)).
FIG. 11B: Tumor weight monitoring of TMD8 human DLBCL cells grown in Immunodeficient mice treated intraperitoneally with the compound 52 (=inhibitor 52) at 10 or 20 mg/kg or with vehicle at the same frequency. (Abscissa: Treatments vehicle, 10 mg/kg or 20 mg/kg of compound 52; Ordinate: Tumor weight in g from 0 to 4 g (scale 1)).

[3] = NOD/SCID HCT116 model, control 1
[4] = CT-26-Balb/c model, control 1.0

Compound | tumor cell apoptosis (cleaved caspase-3 staining) (HCT116 tumors) | SOCS1 expression (M1 marker) ([1]; NOD/SCID (xenograft) model) | pSTAT1 relative expression (M1 marker) ([1]; NOD/SCID HCT116 model, control 0) | ALOX15 relative expression (M2 marker) [1, 3] | pSTAT6 relative expression (M2 marker) [1, 3] | NOS2 relative expression (M1 marker) ([1]; NOD/SCID HCT116 model, control 2) | SOCS1 expression (M1 marker) ([2]; Balb/c (syngeneic) model) | pSTAT1 relative expression (M1 marker) ([2]; CT-26-Balb/c model, 5 mg/Kg, control 1.0) | NOS2 relative expression (M1 marker) ([2]; CT-26-Balb/c model, 5 mg/Kg, control 2.5 as printed) | Arg1 relative expression (M2 marker) [2, 4] | pSTAT6 relative expression (M2 marker) [2, 4] | tumor growth of xenografted DLBCL cell line (TMD8 human DLBCL cells)
COc1ccc(-c2ncc(-c3ncc(-c4cc(OC)c(OC)c(OC)c4)cc3/C=C/c3ccccc3)cc2C)cc1OC [compound 33, (E)-6′-(3,4-Dimethoxyphenyl)-5′-methyl-3-styryl-5-(3,4,5-trimethoxyphenyl)-2,3′-bipyridine] | increase in tumor cell apoptosis | increase | about 1.5 | about 0 | about 0 | about 20 | increase | about 1.5 | about 1 | about 0.5 | about 0.5 | –
COc1cc(-c2cnc(-c3cnc(-c4cc(OC)c(OC)c(OC)c4)c(C)c3)c(/C=C/c3ccccc3)c2)cc(OC)c1OC [compound 52, (E)-5′-Methyl-3-styryl-5,6′-bis(3,4,5-trimethoxyphenyl)-2,3′-bipyridine] | – | – | – | – | – | – | – | – | – | – | – | reduced the tumor growth

Reference: patent US12070452B2, “Compounds targeting HSP110 protein for cancer treatment” (INSERM (Institut National de la Santé et de la Recherche …, priority 2018, dated 2024)
